Legend:
U87MG cells = assay: Cytotoxic or cytostatic activity on U87MG cells; type: cell-based; conditions: Homo sapiens, U-87 MG; Incubation time 72 hours, concentration range 40 pM to 500 μM
Procedure: (§1) The cytotoxic or cytostatic activity of methotrexate, the linker-modified methotrexate, MTX-(EG)3-NH2 and of MTX-(EG)3-NH2-loaded gold nanoparticles (GNPs) ([MTX-(EG)3-NHC(O)-(EG)8][alpha-Gall][COOH-(EG)8]@Au) was assessed by treatment of Hep3B and U87MG cells. Incubation time was 72 hours and the concentration range was 40 pM to 500 μM. The results are expressed as IC50 and are as follows: […]

Hep3B cells = assay: Cytotoxic or cytostatic activity on Hep3B cells; type: cell-based; conditions: Homo sapiens, Incubation time 72 hours, concentration range 40 pM to 500 μM
Procedure: as §1

## CN(Cc1cnc2nc(N)nc(N)c2n1)c1ccc(C(=O)N[C@@H](CCC(=O)O)C(=O)O)cc1 [MTX, Methotrexate]
U87MG cells
  IC50: 0.001 to 1 µM
Hep3B cells
  IC50: 0.001 to 1 µM

## CN(Cc1cnc2nc(N)nc(N)c2n1)c1ccc(C(=O)NC(CCC(=O)NCCCOCCOCCOCCCN)C(=O)O)cc1 (stereo not shown) [MTX-(EG)3-NH2, 4-[(3-{2-[2-(3-aminopropoxy)ethoxy]ethoxy}propyl)carbamoyl]-2-[(4-{[(2,4-diaminopteridin-6-yl)methyl](methyl)amino}phenyl)formamido]butanoic acid]
U87MG cells
  IC50: 1 to 1000 µM
Hep3B cells
  IC50: 0.001 to 1 µM

Source: patent publication US20220241429A1, “Antifolate-Carrying Nanoparticles and Their Use in Medicine” (priority 2018, published 2022)
